Test results: patent publication US20250215029A1 (Recludix Pharma, Inc., priority 2022, published 2025)
Like-named read-outs stand apart in the source and are kept apart here.

How the values were obtained:
[1] = molecular target: T1, pY705-STAT3 in PBMC (Homo sapiens, UniProt P40763); assay: MSD-pSTAT-PBMC Assay (pSTAT3, IL-6 stimulated); type: cell-based; details: PBMC, compound 3 hrs, then 10 ng/mL IL-6 for 10 min
T1 construct: Cryopreserved Peripheral Blood Mononuclear Cells (PBMC) are from AllCells; host or cells: cryopreserved PBMC
Outline: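 MSD electrochemiluminescence read-out: total STAT captured, probed with anti-pY641-STAT6 or anti-pY705-STAT3. Human PBMC, 3 h compound pretreatment, 10 min stimulation (IL-4 1 ng/mL or IL-6 10 ng/mL). Unstimulated signal subtracted, DMSO-normalized, variable-slope IC50.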

[2] = molecular target: T2, pY641-STAT6 in PBMC (Homo sapiens, UniProt P42226); assay: MSD-pSTAT-PBMC Assay (pSTAT6, IL-4 stimulated); type: cell-based; details: compound 3 hrs, then 1 ng/mL IL-4 for 10 min
T2 construct: Cryopreserved Peripheral Blood Mononuclear Cells (PBMC) are from AllCells; host or cells: cryopreserved PBMC
T2 sequence (P42226 1-847): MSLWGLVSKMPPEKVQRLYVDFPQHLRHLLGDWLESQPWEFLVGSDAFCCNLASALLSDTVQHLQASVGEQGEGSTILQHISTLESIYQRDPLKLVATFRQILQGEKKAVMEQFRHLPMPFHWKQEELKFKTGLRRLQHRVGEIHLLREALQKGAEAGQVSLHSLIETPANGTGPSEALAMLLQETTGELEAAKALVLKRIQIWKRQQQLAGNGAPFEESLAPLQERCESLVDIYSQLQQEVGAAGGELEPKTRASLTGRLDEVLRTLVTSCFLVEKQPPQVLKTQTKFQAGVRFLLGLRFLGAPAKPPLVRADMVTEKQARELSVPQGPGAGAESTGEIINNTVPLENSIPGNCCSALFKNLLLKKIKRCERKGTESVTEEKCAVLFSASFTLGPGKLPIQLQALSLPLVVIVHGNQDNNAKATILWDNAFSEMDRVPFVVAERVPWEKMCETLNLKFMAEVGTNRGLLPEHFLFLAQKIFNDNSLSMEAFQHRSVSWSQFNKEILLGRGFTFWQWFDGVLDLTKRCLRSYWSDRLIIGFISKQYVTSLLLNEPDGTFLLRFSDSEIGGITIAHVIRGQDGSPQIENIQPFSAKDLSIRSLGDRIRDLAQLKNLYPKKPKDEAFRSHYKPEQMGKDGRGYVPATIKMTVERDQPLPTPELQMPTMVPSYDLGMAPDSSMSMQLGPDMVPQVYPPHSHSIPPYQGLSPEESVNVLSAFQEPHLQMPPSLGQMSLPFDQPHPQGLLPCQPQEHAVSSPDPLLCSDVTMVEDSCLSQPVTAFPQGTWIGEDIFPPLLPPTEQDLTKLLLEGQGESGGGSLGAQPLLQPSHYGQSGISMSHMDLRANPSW
Outline: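 Cells are preincubated with compound for 3 hrs, then stimulated for 10 min, IL-4 at 1 ng/mL driving STAT6 phosphorylation and IL-6 at 10 ng/mL driving STAT3. Phospho-STAT in lysates is quantified by MSD immunoassay, and IC50 is fitted after subtracting unstimulated wells.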

[3] = PBMC, Table 115, read-out: STAT6
[4] = PBMC, Table 1114, read-out: pSTAT6

T1 sequence (P40763 whole entry): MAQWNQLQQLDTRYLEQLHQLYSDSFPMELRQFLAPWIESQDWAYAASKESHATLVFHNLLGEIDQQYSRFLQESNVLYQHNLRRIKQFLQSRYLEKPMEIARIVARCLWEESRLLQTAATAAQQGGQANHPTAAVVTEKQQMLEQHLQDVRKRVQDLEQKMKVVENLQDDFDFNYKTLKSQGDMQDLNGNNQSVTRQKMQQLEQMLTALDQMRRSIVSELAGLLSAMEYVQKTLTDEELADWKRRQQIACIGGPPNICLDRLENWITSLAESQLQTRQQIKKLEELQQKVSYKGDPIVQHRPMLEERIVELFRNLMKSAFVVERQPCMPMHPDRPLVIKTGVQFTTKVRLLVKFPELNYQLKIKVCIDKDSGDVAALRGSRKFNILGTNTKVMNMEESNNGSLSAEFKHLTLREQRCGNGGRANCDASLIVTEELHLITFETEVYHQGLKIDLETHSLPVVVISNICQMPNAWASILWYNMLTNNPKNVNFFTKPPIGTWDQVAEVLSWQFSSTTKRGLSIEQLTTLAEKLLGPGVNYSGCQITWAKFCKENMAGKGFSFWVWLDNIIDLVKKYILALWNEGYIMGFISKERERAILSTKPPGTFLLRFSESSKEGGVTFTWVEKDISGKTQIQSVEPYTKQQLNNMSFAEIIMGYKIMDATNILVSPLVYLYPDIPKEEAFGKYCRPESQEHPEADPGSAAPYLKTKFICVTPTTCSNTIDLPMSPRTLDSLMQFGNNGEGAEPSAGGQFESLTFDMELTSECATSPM

IC50 [2, 4] [nM] | Structure (SMILES) | IC50 ([1]; Table 1114, read-out: pSTAT3) [nM] | IC50 ([2]; pSTAT6, PBMC, Table 1114) [nM] | also measured
 | CCCOC(=O)[C@H](C)NP(=O)(Oc1ccccc1)C(F)c1ccc2sc(C(=O)N[C@H]3CCCC[C@H]4CC[C@@H](C(=O)N5C[C@@H](c6ccccc6)[C@H](C#N)C56CC6)N4C3=O)cc2c1 (relative stereo) [Compound 325, propyl (((2-(((3S,6S,10aS)-3-((rel-trans)-7-cyano-6-phenyl-4-azaspiro[2.4]heptane-4-carbonyl)-5-oxodecahydropyrrolo [1,2-a]azocin-6-yl)carbamoyl)benzo [b]thiophen-5-yl)fluoromethyl) (phenoxy)phosphoryl)-L-alaninate] |  |  | IC50 ([1]; Table 115, read-out: STAT3): > 3000 nM; IC50 [2, 3]: < 100 nM
 | CCCOC(=O)[C@H](C)NP(=O)(Oc1ccccc1)[C@@H](F)c1ccc2sc(C(=O)N[C@H]3CCCC[C@H]4CC[C@@H](C(=O)N5C[C@H](c6cccc(F)c6)C(C#N)C56CC6)N4C3=O)cc2c1 (relative stereo) [Compound 337, propyl (((R)-(2-(((3S,6S,10aS)-3-((rel-trans)-7-cyano-6-(3-fluorophenyl)-4-azaspiro[2.4]heptane-4-carbonyl)-5-oxodecahydropyrrolo [1,2-a]azocin-6-yl)carbamoyl)benzo [b]thiophen-5-yl)fluoromethyl) (phenoxy)phosphoryl)-L-alaninate] |  |  | IC50 ([1]; Table 115, read-out: STAT3): > 3000 nM; IC50 ([2]; STAT6, PBMC, Table 115): < 100 nM
 | CC(C)CC(=O)SCCOP(=O)(OCCSC(=O)CC(C)C)C(F)(F)c1ccc2ccc(C(=O)N[C@H]3CCCC[C@H]4CC[C@@H](C(=O)N5CC(n6ccnn6)[C@H](O)C5)N4C3=O)cc2c1 (relative stereo) [Compound 1086, S,S′-((((difluoro(7-(((3S,6S,10aS)-3-((rel-trans)-3-hydroxy-4-(1H-1,2,3-triazol-1-yl)pyrrolidine-1-carbonyl)-5-oxodecahydro-pyrrolo [1,2-a]azocin-6-yl)carbamoyl)naphthalen-2-yl)methyl)phosphoryl)bis(oxy))bis(ethane-2,1-diyl)) bis(3-methylbutanethioate)] |  |  | IC50 ([1]; Table 115, read-out: STAT3): < 100 nM; IC50 [2, 3]: 100 to 1000 nM
1000 to 3000 | CCCC(=O)SCCOP(=O)(Cc1ccc2sc(C(=O)N[C@H]3CCCC[C@H]4CC[C@@H](C(=O)N5CC(C#N)C(c6ccccc6)C5)N4C3=O)cc2c1)OCCSC(=O)CCC (single isomer, unassigned) [Compound 125, S,S′-(((((2-(((3S,6S,10aS)-3-((3S,4R or 3R,4S)-3-cyano-4-phenylpyrrolidine-1-carbonyl)-5-oxodecahydropyrrolo[1,2-a]azocin-6-yl)carbamoyl)benzo[b]thiophen-5-yl)methyl)phosphoryl)bis(oxy))bis(ethane-2,1-diyl))dibutanethioate] | > 3000 |  | 
100 to 1000 | CC(C)(C)C(=O)SCCOP(=O)(OCCSC(=O)C(C)(C)C)C(F)(F)c1ccc2sc(C(=O)N[C@H]3CCCC[C@H]4CC[C@@H](C(=O)N5C[C@@H](C#N)[C@H](c6ccccc6)C5)N4C3=O)cc2c1 (single isomer, unassigned) [Compound 127, S,S′-(((((2-(((3S,6S,10aS)-3-((3S,4R or 3R,4S)-3-cyano-4-phenylpyrrolidine-1-carbonyl)-5-oxodecahydro-pyrrolo[1,2-a]azocin-6-yl)carbamoyl)benzo[b]thiophen-5-yl)difluoromethyl)phosphoryl)bis(oxy))bis(ethane-2,1-diyl))bis(2,2-dimethylpropane-thioate] | 1000 to 3000 |  | 
 | CCCC(=O)SCCOP(=O)(Oc1ccccc1)C(F)(F)c1ccc2sc(C(=O)N[C@H]3CCCC[C@H]4CC[C@@H](C(=O)N5C[C@H](c6ccccc6)[C@@H](C#N)C5)N4C3=O)cc2c1 (single isomer, unassigned) [Compound 128, S-(2-((((2-(((3S,6S,10aS)-3-((3R,4S or 3S,4R)-3-cyano-4-phenylpyrrolidine-1-carbonyl)-5-oxodecahydro-pyrrolo[1,2-a]azocin-6-yl)carbamoyl)benzo[b]thiophen-5-yl)difluoromethyl) (phenoxy)phosphoryl)oxy)ethyl) butanethioate] | > 3000 | 100 to 1000 | 
100 to 1000 | CC(C)(C)C(=O)SCCOP(=O)(OCCSC(=O)C(C)(C)C)C(F)(F)c1ccc2sc(C(=O)N[C@H]3C[C@@H](O)CC[C@H]4CC[C@@H](C(=O)N5C[C@@H](C#N)[C@H](c6ccccc6)C5)N4C3=O)cc2c1 (single isomer, unassigned) [Compound 129, S,S′-(((((2-(((3S,6S,8S,10aR)-3-((3S,4R or 3R,4S)-3-cyano-4-phenylpyrrolidine-1-carbonyl)-8-hydroxy-5-oxodecahydro-pyrrolo[1,2-a]azocin-6-yl)carbamoyl)benzo [b]thiophen-5-yl)difluoromethyl)phosphoryl)bis(oxy))bis(ethane-2,1-diyl)) bis(2,2-dimethylpropane-thioate] | > 3000 |  | 
 | CC(C)(C)C(=O)SCCOP(=O)(Oc1ccccc1)C(F)(F)c1ccc2sc(C(=O)N[C@H]3CCCC[C@H]4CC[C@@H](C(=O)N5C[C@H](c6ccccc6)[C@@H](C#N)C5)N4C3=O)cc2c1 (single isomer, unassigned) [Compound 133, S-(2-((((2-(((3S,6S,10aS)-3-((3S,4R or 3R,4S)-3-cyano-4-phenylpyrrolidine-1-carbonyl)-5-oxodecahydro-pyrrolo[1,2-a]azocin-6-yl)carbamoyl)benzo[b]thiophen-5-yl)difluoromethyl) (phenoxy)phosphoryl)oxy)ethyl)-2,2-dimethylpropane-thioate] | > 3000 | 100 to 1000 | 
 | CC(C)(C)C(=O)SCCOP(=O)(Oc1ccc(C#N)cc1)C(F)(F)c1ccc2sc(C(=O)N[C@H]3CCCC[C@H]4CC[C@@H](C(=O)N5C[C@@H](C#N)[C@H](c6ccccc6)C5)N4C3=O)cc2c1 (single isomer, unassigned) [Compound 134, S-(2-((((2-(((3S,6S,10aS)-3-((3S,4R or 3R,4S)-3-cyano-4-phenylpyrrolidine-1-carbonyl)-5-oxodecahydro-pyrrolo[1,2-a]azocin-6-yl)carbamoyl)benzo[b]thiophen-5-yl)difluoromethyl)(4-cyanophenoxy)phosphoryl)oxy)ethyl)-2,2-dimethylpropane-thioate] | > 3000 | 100 to 1000 | 
100 to 1000 | CC(C)CC(=O)SCCOP(=O)(OCCSC(=O)CC(C)C)C(F)(F)c1ccc2sc(C(=O)N[C@H]3C[C@@H](O)CC[C@H]4CC[C@@H](C(=O)N5C[C@@H](C#N)[C@H](c6ccccc6)C5)N4C3=O)cc2c1 (single isomer, unassigned) [Compound 135, S,S′-(((((2-(((3S,6S,8S,10aR)-3-((3S,4R or 3R,4S)-3-cyano-4-phenylpyrrolidine-1-carbonyl)-8-hydroxy-5-oxodecahydro-pyrrolo[1,2-a]azocin-6-yl)carbamoyl)benzo[b]thiophen-5-yl)difluoromethyl)phosphoryl)bis(oxy))bis (ethane-2,1-diyl)) bis(3-methylbutane-thioate)] | > 3000 |  | 
 | CC(C)(C)C(=O)SCCOP(=O)(Oc1cccc(C#N)c1)C(F)(F)c1ccc2sc(C(=O)N[C@H]3CCCC[C@H]4CC[C@@H](C(=O)N5C[C@@H](C#N)[C@H](c6ccccc6)C5)N4C3=O)cc2c1 (single isomer, unassigned) [Compound 137, S-(2-((((2-(((3S,6S,10aS)-3-((3S,4R or 3R,4S)-3-cyano-4-phenylpyrrolidine-1-carbonyl)-5-oxodecahydro-pyrrolo[1,2-a]azocin-6-yl)carbamoyl)benzo[b]thiophen-5-yl)difluoromethyl)(3-cyanophenoxy)phosphoryl)oxy)ethyl)-2,2-dimethylpropane-thioate] | > 3000 | 100 to 1000 | 
